This passage reports IC50 results from patent US11690850B2, “Inhibitors of receptor interacting protein kinase I for the treatment of disease” (Board of Regents, The University of Texas System, priority 2019, dated 2023).

In one experiment the target is RIPK1 (Homo sapiens (Human), UniProt Q13546). The experiment can be described thus: ADP-Glo Kinase Assay. It counts as biochemical. The note with it: 5 nM RIPK1 protein, 50 μM ATP, 6 hr reaction, average value across multiple runs. On the procedure: In order to measure RIPK1 activity the ADP-Glo kinase assay (Promega, Catalog #V7002) was used to measure the conversion of ATP to ADP. This enzymatic assay was performed in a 384-well white, Optiplate (Perkin Elmer, Catalog #6007299) with assay buffer consisting of 50 mM HEPES pH 7.5 (Gibco, Catalog #15630-080), 50 mM NaCl (Teknova, Catalog #S0252), 30 mM MgCl2 (Ambion, Catalog #AM9530G), 1 mM DTT (Santa Cruz Biotechnology, Catalog #sc-29089), 0.05% BSA (Sigma, Catalog #A3059-50G) and 0.02% CHAPS (Sigma, Catalog #C5070-5G). Stock solutions of the test compounds were prepared in 100% DMSO (Sigma, Catalog #D2650) and serially diluted 1:3 using 100% DMSO. Compounds were additionally diluted 1:40 in assay buffer, and 2 μL/well were transferred to the assay plate. 4 μL/well (final concentration of 5 nM) of RIPK1 protein (SignalChem, Catalog #R07-11G-05) diluted in assay buffer and added to the assay plate followed by a 10 minute preincutation at room temperature. 4 μL/well of ATP (Promega, Catalog #V7002) (final concentration of 50 μM) diluted in assay buffer were then added to the assay plate followed by a 6 hr reaction time. Final concentrations of RIPK1 and ATP refer to a 10 μL volume. Luminescence was measured using a BioTek Synergy™ NEO plate reader. IC50 values were calculated using a four-parameter logistic curve fit using Genedata Screener software. Results are shown below in Table 4, where the average value across multiple runs is given.
On the technique in general: ADP-Glo first removes unused ATP, then detects ADP through luciferase.

The test system of experiment [1] is human monocytic cell line U937. The experiment can be described thus: Human U937 Cellular Necroptosis Assay. The experiment is classed as cell-based. The note with it: U-937; U937 cells stimulated with 25 ng/mL human TNFalpha and 25 μM z-VAD-FMK, 22 hr, viability by Cell Titer-Glo 2.0; average value across multiple runs; read-out: hU937 IC50. As to the method: Human U937 Cellular Necroptosis Assay
The human monocytic cell line U937 (CRL-1593.2) was purchased from ATCC. The cells were routinely maintained in RPMI-1640 Medium (Gibco, Catalog #11875-093) supplemented with 10% heat inactivated fetal bovine serum (Gibco, Catalog #16140-071), 100 units/mL penicillin and 100 μg/mL streptomycin (Gibco, Catalog #15140-122), in a humidified incubator (37° C., 5% CO2). For the assay, cells were resuspended in RPMI-1640 phenol red free Media (Gibco, Catalog #11835-030) supplemented with 10% fetal bovine serum (Sigma, Catalog #F2442), 100 units/mL penicillin and 100 ug/mL streptomycin. Cells were stimulated with 25 ng/mL human TNFalpha (Cell Sciences, Catalog #CSI15659B) and 25 μM z-VAD-FMK (R&D Systems, Catalog #FMK001) followed by seeding 5000 cells per well in a volume of 40 μL to a white, CulturPlate-384 (Perkin Elmer, Catalog #6007680). Stock solutions of the test compounds were prepared in 100% DMSO (Sigma, Catalog #D2650) and serially diluted 1:3 using 100% DMSO. Compounds were additionally diluted 1:40 in assay medium, and 10 μL/well was transferred to the plate. Following the compound addition the plate was incubated at 37° C. and 5% CO2 for 22 hr. After 22 hr, viability was assessed with the addition of 20 μL of Cell Titer-Glo 2.0 (Promega, Catalog #G9243). The tissue culture plate was shaken on an orbital shaker at 300 RPM for 15 minutes at room temperature in the dark. Luminescence was measured using a PerkinElmer Envision™ plate reader. IC50 values were calculated using a four-parameter logistic curve fit using Genedata Screener software. Results are shown below in Table 5, where the average value across multiple runs is given.

Chain of RIPK1 (Q13546 1-327): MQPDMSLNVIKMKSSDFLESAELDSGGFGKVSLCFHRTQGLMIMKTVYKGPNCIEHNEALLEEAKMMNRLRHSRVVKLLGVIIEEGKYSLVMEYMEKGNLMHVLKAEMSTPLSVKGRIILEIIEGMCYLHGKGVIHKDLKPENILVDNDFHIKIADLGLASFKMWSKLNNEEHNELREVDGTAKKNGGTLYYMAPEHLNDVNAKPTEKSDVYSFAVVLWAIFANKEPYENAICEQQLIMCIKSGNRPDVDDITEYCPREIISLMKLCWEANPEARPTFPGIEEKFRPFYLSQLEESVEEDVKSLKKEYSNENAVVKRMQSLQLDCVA

Regarding `Cc1c(Cl)c(=O)c(C(=O)NC2CCc3ccccc3NC2=O)nn1-c1ccccc1` (centres unmarked) [Example 39, 5-Chloro-6-methyl-4-oxo-N-(2-oxo-2,3,4,5-tetrahydro-1H-benzo[b]azepin-3-yl)-1-phenyl-1,4-dihydropyridazine-3-carboxamide], the IC50 – broadly, the concentration that gives 50% inhibition – on RIPK1 turned out to be 18 nM; in experiment [1] it was 69 nM.
Turning to `Cc1cc(=O)c(C(=O)NC2CCc3ccccc3NC2=O)nn1-c1ccccc1` (centres unmarked) [Example 38, 6-Methyl-4-oxo-N-(2-oxo-2,3,4,5-tetrahydro-1H-benzo[b]azepin-3-yl)-1-phenyl-1,4-dihydropyridazine-3-carboxamide], the half-maximal inhibitory concentration (IC50) was 57 nM at RIPK1 and 82 nM in experiment [1].
The corresponding values for `Cc1ccc(-n2nc(C(=O)NC3CCc4ccccc4NC3=O)c(=O)cc2C)cn1` (centres unmarked) [Example 51, 6-methyl-1-(6-methylpyridin-3-yl)-4-oxo-N-(2-oxo-2,3,4,5-tetrahydro-1H-benzo[b]azepin-3-yl)-1,4-dihydro-pyridazine-3-carboxamide] are 1970 nM and 1700 nM.
`Cc1cc(=O)c(C(=O)Nc2c(Br)cccc2C(C)C)nn1-c1ccccc1` [Example 24, N-(2-bromo-6-isopropylphenyl)-6-methyl-4-oxo-1-phenyl-1,4-dihydropyridazine-3-carboxamide]: the figures for the half-inhibitory concentration (IC50) (at RIPK1; in experiment [1]) were 489 nM and 2660 nM, respectively.
The matching figures for `Cc1cc(=O)c(C(=O)NC2CCc3cc(F)cc(F)c3N(C)C2=O)nn1-c1ccccc1` (centres unmarked) [Example 49, N-(7,9-difluoro-1-methyl-2-oxo-2,3,4,5-tetrahydro-1H-benzo[b]azepin-3-yl)-6-methyl-4-oxo-1-phenyl-1,4-dihydropyridazine-3-carboxamide]: 64 nM and 66 nM.
In the case of `Cc1cccc(-n2nc(C(=O)NC3CCc4ccccc4NC3=O)c(=O)cc2C)c1` (centres unmarked) [Example 64, 6-methyl-4-oxo-N-(2-oxo-2,3,4,5-tetrahydro-1H-benzo[b]azepin-3-yl)-1-(m-tolyl)-1,4-dihydropyridazine-3-carboxamide], the half-inhibitory concentration (IC50) on RIPK1 was 43.1 nM; in experiment [1], 77.8 nM.
For the molecule `Cc1cc(=O)c(C(=O)N[C@H]2COc3cc(C#N)ccc3N(C)C2=O)nn1-c1ccccc1` [Example 55, (S)-N-(8-cyano-5-methyl-4-oxo-2,3,4,5-tetrahydrobenzo[b][1,4]oxazepin-3-yl)-6-methyl-4-oxo-l-phenyl-1,4-dihydropyridazine-3-carboxamide], the half-maximal inhibitory concentration (IC50) was 33 nM at RIPK1 and 54 nM in experiment [1].
`Cc1c(Br)c(=O)c(C(=O)NC2CCc3cc(C#N)ccc3NC2=O)nn1-c1ccccc1` (centres unmarked) [Example 44, 5-Bromo-N-(7-cyano-2-oxo-2,3,4,5-tetrahydro-1H-benzo[b]azepin-3-yl)-6-methyl-4-oxo-1-phenyl-1,4-dihydropyridazine-3-carboxamide]: the IC50 turned out to be 62 nM at RIPK1 and 160 nM in experiment [1].
The corresponding values for `Cc1cc(=O)c(C(=O)NC2CCc3ccccc3NC2=O)nn1-c1ccc(F)cc1` (centres unmarked) [Example 57, 1-(4-fluorophenyl)-6-methyl-4-oxo-N-(2-oxo-2,3,4,5-tetrahydro-1H-benzo[b]-azepin-3-yl)-1,4-dihydropyridazine-3-carboxamide] are 20 nM and 41 nM.
The corresponding values for `Cc1cc(=O)c(C(=O)NC2CCc3ccccc3NC2=O)nn1-c1cccc(C#N)c1` (centres unmarked) [Example 53, 1-(3-cyanophenyl)-6-methyl-4-oxo-N-(2-oxo-2,3,4,5-tetrahydro-1H-benzo[b]azepin-3-yl)-1,4-dihydropyridazine-3-carboxamide] are 652 nM and 591 nM.
On to `Cc1cc(=O)c(C(=O)NC2CCc3ccccc3NC2=O)nn1-c1cncc(F)c1` (centres unmarked) [Example 79, 1-(5-fluoropyridin-3-yl)-6-methyl-4-oxo-N-(2-oxo-2,3,4,5-tetrahydro-1H-benzo[b]azepin-3-yl)-1,4-dihydropyridazine-3-carboxamide], for which the IC50 in experiment [1] stood at 507 nM.
For `Cc1ccc(-n2nc(C(=O)NC3CCc4ccccc4NC3=O)c(=O)cc2C)cc1` (centres unmarked) [Example 71, 6-methyl-4-oxo-N-(2-oxo-2,3,4,5-tetrahydro-1H-benzo[b]azepin-3-yl)-1-(p-tolyl)-1,4-dihydropyridazine-3-carboxamide], the figures for the IC50 (at RIPK1; in experiment [1]) were 30.9 nM and 50.2 nM, respectively.
Regarding `Cc1cc(=O)c(C(=O)N[C@@H]2C(=O)N(C)c3ncccc3O[C@@H]2C)nn1-c1ccccc1` [Example 78, N-((2R,3S)-2,5-dimethyl-4-oxo-2,3,4,5-tetrahydropyrido[3,2-b]-[1,4]oxazepin-3-yl)-6-methyl-4-oxo-1-phenyl-1,4-dihydropyridazine-3-carboxamide], in experiment [1], the 50% inhibitory concentration (IC50) came out at 150 nM.
As for `Cc1ccc(-n2nc(C(=O)N[C@H]3COc4cccnc4N(C)C3=O)c(=O)c(Cl)c2C)cc1F` [Example 82, (S)-5-chloro-1-(3-fluoro-4-methyl-phenyl)-6-methyl-N-(5-methyl-4-oxo-2,3,4,5-tetrahydropyrido[3,2-b]-[1,4]oxazepin-3-yl)-4-oxo-1,4-dihydropyridazine-3-carboxamide], the half-inhibitory concentration (IC50) in experiment [1] came to 56.4 nM.
`COc1cc2c(cn1)N(C)C(=O)C(NC(=O)c1nn(-c3ccccc3)c(C)cc1=O)CC2` (centres unmarked) [Example 81, N-(7-methoxy-1-methyl-2-oxo-2,3,4,5-tetrahydro-1H-pyrido[3,4-b]azepin-3-yl)-6-methyl-4-oxo-1-phenyl-1,4-dihydropyridazine-3-carboxamide]: the half-inhibitory concentration (IC50) in experiment [1] was determined as 788 nM.
In the case of `Cc1cc(=O)c(C(=O)NC2CCc3ccccc3-n3ccnc32)nn1-c1ccccc1` (centres unmarked) [Example 73, N-(5,6-dihydro-4H-benzo[f]imidazo[1,2-a]azepin-4-yl)-6-methyl-4-oxo-1-phenyl-1,4-dihydropyridazine-3-carboxamide], the IC50 in experiment [1] was 296 nM.
Same read-out and setting: the value for `CCN1C(=O)[C@@H](NC(=O)c2nn(-c3ccccc3)c(C)cc2=O)COc2cccnc21` [Example 76, (S)-N-(5-ethyl-4-oxo-2,3,4,5-tetrahydro-pyrido[3,2-b][1,4]oxazepin-3-yl)-6-methyl-4-oxo-1-phenyl-1,4-dihydro-pyridazine-3-carboxamide] was 5590 nM; that for `Cc1c(Cl)c(=O)c(C(=O)N[C@H]2COc3cccnc3N(C)C2=O)nn1-c1ccccc1` [Example 74, (S)-5-chloro-6-methyl-N-(5-methyl-4-oxo-2,3,4,5-tetrahydropyrido[3,2-b]-[1,4]oxazepin-3-yl)-4-oxo-1-phenyl-1,4-dihydropyridazine-3-carboxamide] was 58.2 nM.
In the case of `Cc1ccc(-n2nc(C(=O)N[C@H]3COc4cccnc4N(C)C3=O)c(=O)cc2C)cc1` [Example 77, (S)-6-methyl-N-(5-methyl-4-oxo-2,3,4,5-tetrahydropyrido[3,2-b][1,4]oxazepin-3-yl)-4-oxo-1-(p-tolyl)-1,4-dihydro-pyridazine-3-carboxamide], the IC50 in experiment [1] is 26.5 nM.
Consider `Cc1ccc(-n2nc(C(=O)N[C@H]3COc4cccnc4N(C)C3=O)c(=O)cc2C)cc1F` [Example 75, (S)-1-(3-fluoro-4-methylphenyl)-6-methyl-N-(5-methyl-4-oxo-2,3,4,5-tetrahydro-pyrido[3,2-b][1,4]oxazepin-3-yl)-4-oxo-1,4-dihydropyridazine-3-carboxamide], for which the IC50 in experiment [1] was 28.4 nM.
Turning to `Cc1cc(=O)c(C(=O)N[C@H]2COc3cccnc3NC2=O)nn1-c1ccccc1` [Example 63, (S)-6-methyl-4-oxo-N-(4-oxo-2,3,4,5-tetrahydropyrido[3,2-b][1,4]oxazepin-3-yl)-1-phenyl-1,4-dihydropyridazine-3-carboxamide], in experiment [1], the half-inhibitory concentration (IC50) stood at 479 nM.
